For orientation: viability means the share of living cells, or the viability signal relative to a control. Read a low viability as more harm to the cells. In general, IC50 refers to the point on the concentration scale where inhibition reaches its midpoint. As a reminder, the GI50 is the concentration at which growth is held to half of that of the control.

Read-outs that look alike come from different tables or passages of the source.

Data set [1] in a line: Cell viability assay (MTT) on normal mammary epithelial cells. The following applies: human, MCF-10A normal mammary gland epithelial cells, four days of incubation. The format is cell-based. As for the experimental part:
The viability test was performed on a normal human mammary gland epithelial cell line (MCF-10A). The MTT test was used to assess the viability of compounds 3a–e, 4a–c, and 5a–c.
The MTT assay was used to determine how the synthesized compounds affected the viability of mammary epithelial cells (MCF-10A). See Appendix SA (Supplementary Materials). […]
4.2. Biological evaluation
4.2.1. Cytotoxic activity using MTT Assay and evaluation of IC50
MTT assay was performed to investigate the effect of the synthesized compounds on mammary epithelial cells (MCF-10A). The cells were propagated in medium consisting of Ham's F-12 medium/ Dulbecco's modified Eagle's medium (DMEM) (1:1) supplemented with 10% foetal calf serum, 2 mM glutamine, insulin (10 μg/mL), hydrocortisone (500 ng/mL) and epidermal growth factor (20 ng/mL). Trypsin ethylenediamine tetra acetic acid (EDTA) was used to passage the cells after every 2-3 days. 96-well flat-bottomed cell culture plates were used to seed the cells at a density of 10^4 cells mL-1. The medium was aspirated from all the wells of culture plates after 24 h followed by the addition of synthesized compounds (in 200 μL medium to yield a final concentration of 0.1% (v/v) dimethylsulfoxide) into individual wells of the plates.
Four wells were designated to a single compound. The plates were allowed to incubate at 37°C for 96 h. Afterwards, the medium was aspirated and 3-[4,5-dimethylthiazol-2-yl]-2,5-diphenyltetrazolium bromide (MTT) (0.4 mg/mL) in medium was added to each well and subsequently incubated for 3 h. The medium was aspirated and 150 μL dimethyl sulfoxide (DMSO) was added to each well. The plates were vortexed followed by the measurement of absorbance at 540 nm on a microplate reader. […]

The subject of data set [2] is A-549 (epithelial cancer cell line). The data set is described as follows: Antiproliferative assay, A-549. In kind it is cell-based. The following applies: Homo sapiens, A549; read-out: Antiproliferative Activity IC50 ± SEM A-549. As for the experimental part: (§1) For ease of manipulation, the average (GI50) versus the four cancer cell lines was used.
(§2) To investigate the antiproliferative potential of 3a–e, 4a–c, and 5a–c, the MTT assay was carried out using various cell lines in accordance with previously reported procedures. See Appendix SA (Supplementary Materials). […]
(§3) ethylenediamine tetra acetic acid (EDTA) was used to passage the cells after every 2-3 days. 96-well flat-bottomed cell culture plates were used to seed the cells at a density of 10^4 cells mL-1. The medium was aspirated from all the wells of culture plates after 24 h followed by the addition of synthesized compounds (in 200 μL medium to yield a final concentration of 0.1% (v/v) dimethylsulfoxide) into individual wells of the plates.
(§4) Four wells were designated to a single compound. The plates were allowed to incubate at 37°C for 96 h. Afterwards, the medium was aspirated and 3-[4,5-dimethylthiazol-2-yl]-2,5-diphenyltetrazolium bromide (MTT) (0.4 mg/mL) in medium was added to each well and subsequently incubated for 3 h. The medium was aspirated and 150 μL dimethyl sulfoxide (DMSO) was added to each well. The plates were vortexed followed by the measurement of absorbance at 540 nm on a microplate reader. The results were presented as inhibition (%) of proliferation in contrast to controls comprising 0.1% 4.2.1.2. Assay for antiproliferative effect
(§5) To explore the antiproliferative potential of compounds propidium iodide fluorescence assay was performed using different cell lines such as Panc-1 (pancreas cancer cell […]
(§6) (epithelial cancer cell line), respectively. To calculate the total nuclear DNA, a fluorescent dye (propidium iodide, PI) is used which can attach to the DNA, thus offering a quick and precise technique. PI cannot pass through the cell membrane and its signal intensity can be considered as directly proportional to quantity of cellular
(§7) DNA. Cells whose cell membranes are damaged or have changed permeability are counted as dead ones. The assay was performed by seeding the cells of different cell lines at a density of 3000-7500 cells/well (in200μl medium) in culture plates followed […]
(§8) The medium was removed; the compounds were added to the plates at 10 μM concentrations (in 0.1% DMSO) in triplicates, followed by incubation for 48h. DMSO (0.1%) was used as control. After incubation, medium was removed followed by the addition of PI (25 μl, 50μg/mL in water/medium) to each well of the plates. At -80 °C, the plates were allowed to freeze for 24 h, followed by thawing at 25 °C. A fluorometer (Polar-Star BMG Tech) was used to record the readings at excitation and emission wavelengths of 530 and 620 nm for each well. The percentage cytotoxicity of compounds was calculated using the following formula:
(§9) Where ATC= Absorbance of treated cells and AC= Absorbance of control. […]
(§10) was used as positive control in the assay. […]

Data set [3] relates to MCF-7 (breast cancer cell line). The data set is described as follows: Antiproliferative assay, MCF-7. As to conditions: Homo sapiens, MCF7; read-out: Antiproliferative Activity IC50 ± SEM MCF-7. In kind it is cell-based. As for the experimental part:
as §1, §2, §3, §4, §5, §6, §7, §8, §9, §10

Data set [4] has as its system Panc-1 (pancreatic cancer cell line). The experiment in a line: Antiproliferative assay, Panc-1. In kind it is cell-based. As to conditions: Homo sapiens, read-out: Antiproliferative Activity IC50 ± SEM Panc-1. As for the experimental part: as §1, §2, §3, §4, §5, §6, §7, §8, §9, §10
Data set [5] has as its system HT-29 (colon cancer cell line). The experiment in a line: Antiproliferative assay, HT-29. The format is cell-based. The following applies: Homo sapiens, read-out: Antiproliferative Activity IC50 ± SEM HT-29. As for the experimental part: as §1, §2, §3, §4, §5, §6, §7, §8, §9, §10
The test system of data set [6] is four human cancer cell lines (Panc-1, MCF-7, HT-29, A-549). The experiment in a line: Antiproliferative assay, average (GI50) versus the four cancer cell lines. The format is cell-based. As to conditions: Homo sapiens; average versus the four cancer cell lines. As for the experimental part:
as §1, §2, §3, §4, §5, §6, §7, §8, §9, §10

Data set [7] has as its target T1, BRAF^V600E (Mus musculus, UniProt P28028, V585E).
T1 construct: Mouse full-length GST-tagged; GST; purchased Invitrogen PV3849
The experiment in a line: V600E mutant BRAF kinase assay. In kind it is biochemical. The following applies: read-out: BRAF^V600E Inhibition IC50 ± SEM. As for the experimental part: V600E mutant BRAF kinase assay was performed to investigate the activity of […]
Mouse full-length GST-tagged
BRAFV600E (7.5 ng, Invitrogen, PV3849) was pre -incubated with drug (1 µL) and assay dilution buffer (4 µL) for 6 0 min at 25 °C. In assay dilution buffer, a solution (5 µL) containing MgCl2 (30 mM), ATP (200 µM), recombinant human full length (200 ng) […] N-terminal His-tagged MEK1 (Invitrogen) was added to start the assay, after incubation for 25 min at 25 °C. The assay was stopped using 5X protein denaturing buffer (LDS) solution (5 µL). To further denature the protein, heat (70° C) was applied […]
electrophoresis (at 200 V). 10 µL of each reaction was loaded into the precast plates and electrophoresis was allowed to proceed. After completion of electrophoresis, the front part of the precast gel plate (holding hot ATP) was cut and afterwards cast -off.
The dried gel was developed using a phosphor screen. […]
Computerized Prism 5 program was used to statistically analyzed data using one-way ANOVA test followed by Tukey’s as post ANOVA for multiple comparison at P ≤.05.
Data were presented as mean ± SEM.

Data set [8] deals with T2, EGFR^T790M (Homo sapiens, UniProt P00533, T790M).
T2 construct: purchased Carna Bioscience
T2 sequence (P00533 25-1210 T790M): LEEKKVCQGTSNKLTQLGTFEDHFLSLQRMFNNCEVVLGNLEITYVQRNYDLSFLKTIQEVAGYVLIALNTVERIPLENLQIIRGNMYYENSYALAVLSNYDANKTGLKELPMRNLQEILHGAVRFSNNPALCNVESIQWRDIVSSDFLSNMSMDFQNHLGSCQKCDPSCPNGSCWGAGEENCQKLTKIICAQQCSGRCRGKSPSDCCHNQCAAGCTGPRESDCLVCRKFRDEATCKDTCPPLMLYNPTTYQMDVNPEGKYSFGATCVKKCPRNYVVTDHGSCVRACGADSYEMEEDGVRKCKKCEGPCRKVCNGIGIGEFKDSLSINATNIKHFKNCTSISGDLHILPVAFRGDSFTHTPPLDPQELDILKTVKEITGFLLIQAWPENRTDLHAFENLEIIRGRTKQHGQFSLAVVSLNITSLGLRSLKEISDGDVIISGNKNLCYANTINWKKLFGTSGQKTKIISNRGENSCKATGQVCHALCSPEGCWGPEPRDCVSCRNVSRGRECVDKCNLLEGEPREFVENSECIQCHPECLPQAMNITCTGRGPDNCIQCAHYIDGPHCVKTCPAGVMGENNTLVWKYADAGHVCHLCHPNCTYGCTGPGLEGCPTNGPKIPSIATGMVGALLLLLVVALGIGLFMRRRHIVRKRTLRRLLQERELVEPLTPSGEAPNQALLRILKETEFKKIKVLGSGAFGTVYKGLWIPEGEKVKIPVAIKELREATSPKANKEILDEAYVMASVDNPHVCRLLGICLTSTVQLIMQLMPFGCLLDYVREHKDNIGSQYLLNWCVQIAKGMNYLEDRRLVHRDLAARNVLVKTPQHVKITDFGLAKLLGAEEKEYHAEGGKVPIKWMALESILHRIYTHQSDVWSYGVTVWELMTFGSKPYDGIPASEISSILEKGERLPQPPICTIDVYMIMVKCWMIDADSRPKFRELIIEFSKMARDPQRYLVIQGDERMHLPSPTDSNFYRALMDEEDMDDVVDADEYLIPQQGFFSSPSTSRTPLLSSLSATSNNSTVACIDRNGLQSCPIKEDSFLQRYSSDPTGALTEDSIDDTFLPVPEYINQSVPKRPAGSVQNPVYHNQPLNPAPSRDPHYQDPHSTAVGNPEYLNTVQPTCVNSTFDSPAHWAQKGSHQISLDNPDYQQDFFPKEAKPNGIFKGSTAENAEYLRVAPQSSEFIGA
The data set is described as follows: EGFR^T790M inhibitory assay (HTRF KinEASE-TK). The format is biochemical. The following applies: for IC50: HTRF KinEASE-TK, read-out: EGFR^T790M Inhibition IC50 ± SEM. As for the experimental part:
Osimertinib served as the positive control.
EGFRT790M inhibitory assay
The EGFR protein (EGFRT790M) was purchased from Carna Bioscience. The HTRF KinEASE-TK kit (Cat#62TK0PEB) was from Cisbio. All the other chemicals were […]
low volume, black, NBS), using Cisbio HTRF KinEASE -TK kit. The assay buffer contained 50 mM HEPES (Ph 7.0), 0.02% NaN3, 0.01% BSA, 0.1 mM Orthovanadate, […]
EGFR kinases was first incubated with compounds for 2 h respectively, then ATP/Peptide substrate mixture was added to initiate the reaction. After 30 min reaction at room temperature, the detection reagents were added. The TR-FRET signal was measured on PerkinElmer Envision using […]
The data was analyzed using Graph
Pad Prism (Version 6.0) software after three parallel experiments. […]
On the technique in general: Time-resolved FRET reads energy transfer from a long-lived donor to a nearby acceptor.

The test system of data set [9] is LOX-IMVI melanoma cell line. The experiment in a line: LOX-IMVI melanoma cell line cytotoxicity assay (MTT). In kind it is cell-based. The following applies: Homo sapiens, 5-dose concentrations, read-out: LOX-IMVI Melanoma IC50 ± SEM. As for the experimental part:
The IC50 values of the test compounds were determined at 5-dose concentrations, with staurosporine serving as a control.
The anticancer activity of the synthesized derivatives was determined using the MTT cytotoxicity assay on LOX-IMVI melanoma cell line. See Appendix SA (Supplementary Materials).

The target of data set [10] is T3, EGFR (Homo sapiens, UniProt P00533). The data set is described as follows: EGFR-TK inhibitory assay.
T3 sequence (P00533 669-1210): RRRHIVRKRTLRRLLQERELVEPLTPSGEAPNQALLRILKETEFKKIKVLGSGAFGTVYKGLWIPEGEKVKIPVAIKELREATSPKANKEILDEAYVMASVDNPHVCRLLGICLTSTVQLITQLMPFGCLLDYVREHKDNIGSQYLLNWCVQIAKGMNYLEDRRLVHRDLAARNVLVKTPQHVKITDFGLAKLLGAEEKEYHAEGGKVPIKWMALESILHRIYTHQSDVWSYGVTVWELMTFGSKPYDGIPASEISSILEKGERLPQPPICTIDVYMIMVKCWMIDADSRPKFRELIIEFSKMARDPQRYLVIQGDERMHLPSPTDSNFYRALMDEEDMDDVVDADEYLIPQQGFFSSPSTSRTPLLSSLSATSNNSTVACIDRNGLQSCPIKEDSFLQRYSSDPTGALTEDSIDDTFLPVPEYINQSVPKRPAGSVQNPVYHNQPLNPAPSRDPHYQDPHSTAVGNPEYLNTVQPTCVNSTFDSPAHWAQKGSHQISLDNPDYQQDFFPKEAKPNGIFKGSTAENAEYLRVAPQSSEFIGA
For data set [11], the target named is T2, EGFR^T790M. As to conditions: cited from earlier work.
For a further data set, the system named is EGFR^L858R. Also on record: method as in PMID 29758406. As to conditions: cited from earlier work.
The test system of another data set is c-MET. Also on record: method as in PMID 29758406. The following applies: cited from earlier work.
The subject of data set [12] is BRAF^V600E. As to conditions: cited from earlier work.
A further data set concerns four cancer cell lines. Also on record: method as in PMID 32920363. As to conditions: read-out: GI50 against four cancer cell lines; cited from earlier work.
In data set [13] the target is T3, EGFR. Also on record: CD, amino acids 645–1186); His6 (N); made in house; host or cells: Sf-9 insect cells (baculovirus; pBlueBacHis2B / pFASTBacHTc. The following applies: cited from earlier work.

T1 sequence (P28028 whole entry V585E): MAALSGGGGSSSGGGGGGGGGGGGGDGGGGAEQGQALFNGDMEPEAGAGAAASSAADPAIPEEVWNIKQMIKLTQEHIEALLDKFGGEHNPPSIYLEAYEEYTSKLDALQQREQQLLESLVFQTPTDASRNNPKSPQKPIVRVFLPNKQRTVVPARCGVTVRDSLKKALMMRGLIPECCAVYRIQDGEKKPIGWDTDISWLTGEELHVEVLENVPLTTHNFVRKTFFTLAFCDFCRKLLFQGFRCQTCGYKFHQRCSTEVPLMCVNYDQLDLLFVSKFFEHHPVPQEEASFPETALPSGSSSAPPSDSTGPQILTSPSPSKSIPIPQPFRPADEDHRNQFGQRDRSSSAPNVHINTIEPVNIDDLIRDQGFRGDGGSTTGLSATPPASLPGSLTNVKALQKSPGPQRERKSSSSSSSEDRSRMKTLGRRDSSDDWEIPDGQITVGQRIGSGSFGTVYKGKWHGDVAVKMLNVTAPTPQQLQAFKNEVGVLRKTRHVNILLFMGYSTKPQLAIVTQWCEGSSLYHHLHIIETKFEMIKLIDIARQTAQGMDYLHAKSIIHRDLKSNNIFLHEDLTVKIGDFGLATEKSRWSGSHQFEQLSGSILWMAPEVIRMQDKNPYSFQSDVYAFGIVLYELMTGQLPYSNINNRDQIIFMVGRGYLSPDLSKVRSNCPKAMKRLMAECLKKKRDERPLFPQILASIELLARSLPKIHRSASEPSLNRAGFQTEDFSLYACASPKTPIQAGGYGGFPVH

Turning to `CCOC(=O)c1[nH]c2ccc(Cl)cc2c1CNCCc1ccc(N2CCCC2)cc1` [Compound 3b, Ethyl 5-chloro-3-((4-(pyrrolidin-1-yl)phenethylamino)methyl)-1H-indole-2-carboxylate], the viability at 96 h, 50 µM in data set [1] stood at 91%. Besides, the IC50 turned out to be 30 ± 3 nM in data set [2]; 32 ± 3 nM in [3]; 30 ± 3 nM in data set [4]; 32 ± 3 nM in [5]; 39 ± 3 nM on BRAF^V600E [7]; 9.2 ± 2 nM on EGFR^T790M [8]. The concentration for half-maximal inhibition (IC50) in data set [9] worked out at 1120 ± 10 nM; against EGFR [10] it was 74 ± 5 nM. For the same compound, in data set [6], growth was halved (GI50) at 31 nM. For the same compound, the “selectivity index toward EGFR^T790M protein over wild-type EGFR” value at EGFR^T790M [8] is 8 fold.
As to `CCOC(=O)c1[nH]c2ccc(Cl)cc2c1CNCCc1cccc(N2CCCCC2)c1` [Compound 3e, Ethyl 5-chloro-3-((3-(piperidin-1-yl)phenethylamino)methyl)-1H-indole-2-carboxylate], in data set [1], the viability at 96 h, 50 µM came out at 92%. The IC50 in [2] was determined as 27 ± 2 nM; in data set [3], 30 ± 3 nM; in data set [4] it was 29 ± 3 nM; in data set [5], 30 ± 3 nM; at BRAF^V600E [7], 35 ± 3 nM; on EGFR^T790M [8] it was 8.6 ± 2 nM. Also, the 50% inhibitory concentration (IC50) in data set [9] was determined as 960 ± 10 nM; at EGFR [10], 68 ± 5 nM. This compound also came in with a GI50 in [6] of 29 nM. The “selectivity index toward EGFR^T790M protein over wild-type EGFR” value at EGFR^T790M [8] turned out to be 8 fold. Besides, the “fold more potent than erlotinib (EGFR IC50)” value on EGFR [10] (relative to erlotinib IC50 = 80 nM) is recorded as 1.2 fold.
With `CCc1ccc(Cn2cc(-c3cc(-c4ccc(Br)cc4)nc(N)n3)c3ccccc32)cc1` [Compound II], the IC50 was 94 nM on EGFR^T790M [11], 99 nM in the data set with EGFR^L858R and 595 nM in the data set on c-MET.
`Cc1c2n(c3ccc(Cl)cc13)C(=O)CN(CCc1ccc(N3CCOCC3)cc1)C2=O` [Compound VI]: the values for the IC50 in the data set on BRAF^V600E [12] and at EGFR [13] were 150 nM and 80 nM, respectively. Besides, in the data set on four cancer cell lines, the concentration for 50% growth inhibition (GI50) is 1110 nM.

The values above are taken from article PMC9921301, “Design, Synthesis, and Antiproliferative Activity of New 5-Chloro-indole-2-carboxylate and Pyrrolo[3,4-b]indol-3-one Derivatives as Potent Inhibitors of EGFR^T790M/BRAF^V600E Pathways” (Molecules, 2023).
